# Laboratory results as given in ChEMBL document CHEMBL5154835, “Design, synthesis and biological evaluation of sulfonamides inhibitors of XPO1 displaying activity against multiple myeloma cells” (Eur J Med Chem, 2022).
# pIC50: −log10 of the molar value.
# How the values were obtained:
# Assay type in all cases: functional, cell-based
# MM1.S = assay: Antiproliferative activity against human MM1.S cells assessed as inhibition of cell growth incubated for 4 hrs by CCK-8 assay
# [1] = Antiproliferative activity against human Rael cells assessed as inhibition of cell growth incubated for 4 hrs by CCK-8 assay
# YT = assay: Antiproliferative activity against human YT cells assessed as inhibition of cell growth incubated for 4 hrs by CCK-8 assay
# [2] = Antiproliferative activity against human Mutu-1 cells assessed as inhibition of cell growth incubated for 4 hrs by CCK-8 assay; details: Mutu-1, 4 h
# [3] = Antiproliferative activity against human MINO cells assessed as inhibition of cell growth incubated for 4 hrs by CCK-8 assay
# [4] = Antiproliferative activity against human VAL cells assessed as inhibition of cell growth incubated for 4 hrs by CCK-8 assay
# [5] = Antiproliferative activity against human JB-6 cells assessed as inhibition of cell growth incubated for 4 hrs by CCK-8 assay; details: JB6, 4 h
# NAMALVA = assay: Antiproliferative activity against human NAMALVA cells assessed as inhibition of cell growth incubated for 4 hrs by CCK-8 assay
# H9 = assay: Antiproliferative activity against human H9 cells assessed as inhibition of cell growth incubated for 4 hrs by CCK-8 assay; details: H9, 4 h
smiles,measurement,setting,value
N#Cc1cn(/C=C(/C(N)=O)c2cncnc2)nc1-c1cc(C(F)(F)F)cc(C(F)(F)F)c1,pIC50,MM1.S,5.93
NC(=O)/C(=C/n1cnc(-c2cc(C(F)(F)F)cc(C(F)(F)F)c2)n1)c1cncnc1 [ELTANEXOR],pIC50,[1],6.58
same,pIC50,YT,6.99
same,pIC50,MM1.S,7.19
same,pIC50,[2],6.55
same,pIC50,[3],6.89
same,pIC50,[4],6.54
same,pIC50,[5],6.48
same,pIC50,NAMALVA,7.03
same,pIC50,H9,6.86
CCOc1ccc(/C(=C\n2cnc(-c3cc(C(F)(F)F)cc(C(F)(F)F)c3)n2)C(N)=O)c(F)c1F,pIC50,MM1.S,< 5.00
NC(=O)/C(=C/n1cnc(-c2cc(C(F)(F)F)cc(C(F)(F)F)c2)n1)c1cc(F)c(F)c(F)c1,pIC50,MM1.S,5.61
NC(=O)/C(=C/n1cnc(-c2cc(C(F)(F)F)cc(C(F)(F)F)c2)n1)c1ccc(NS(=O)(=O)c2ccccc2)cc1,pIC50,MM1.S,6.47
CCNC(=O)/C(=C/n1cnc(-c2cc(C(F)(F)F)cc(C(F)(F)F)c2)n1)c1ccc(NS(C)(=O)=O)cc1,pIC50,MM1.S,5.67
CS(=O)(=O)Nc1cccc(/C(=C\n2cnc(-c3cc(C(F)(F)F)cc(C(F)(F)F)c3)n2)C(N)=O)c1,pIC50,MM1.S,6.57
